# Measured values taken from paper PMC5218480 (PLoS ONE, 2017).
# System: MV-4-11 cells
# Test: Gene expression microarray analysis (Affymetrix PrimeView) and GSEA
# Format: cell-based, human
# Set-up: RFU PODN (11730768_x_at) / Fold change /veh PODN (11730768_x_at) / RFU LINC00158 (11744669_a_at) / Fold change /veh LINC00158 (11744669_a_at) / RFU DUSP10 (11751237_a_at) / Fold change /veh DUSP10 (11751237_a_at) / RFU ID3 (11757404_x_at) / Fold change /veh ID3 (11757404_x_at) / RFU PLEKHG5 (11737974_s_at) / Fold change /veh PLEKHG5 (11737974_s_at) / RFU LRRC4B (11730491_at) / Fold change /veh LRRC4B (11730491_at) / RFU GIMAP4 (11747438_a_at) / Fold change /veh GIMAP4 (11747438_a_at) / RFU KRT8 (11758183_x_at) / Fold change /veh KRT8 (11758183_x_at) / RFU CNN1 (11734310_a_at) / Fold change /veh CNN1 (11734310_a_at) / RFU VPS37D (11726825_at) / Fold change /veh VPS37D (11726825_at) / RFU C10orf10 (11716522_x_at) / Fold change /veh C10orf10 (11716522_x_at) / RFU KIR2DL2 /// KIR2DL4 /// KIR2DL5A /// KIR2DL5B /// KIR2DS1 /// KIR2DS2 /// KIR2DS3 /// KIR2DS4 /// KIR3DL3 /// KIR3DL3 /// KIR3DS1 (11738374_at) / Fold change /veh KIR2DL2 /// KIR2DL4 /// KIR2DL5A /// KIR2DL5B /// KIR2DS1 /// KIR2DS2 /// KIR2DS3 /// KIR2DS4 /// KIR3DL3 /// KIR3DL3 /// KIR3DS1 (11738374_at) / RFU C1QL1 (11718748_at) / Fold change /veh C1QL1 (11718748_at) / RFU TMPRSS4 (11747572_a_at) / Fold change /veh TMPRSS4 (11747572_a_at) / RFU HAMP (11756126_x_at) / Fold change /veh HAMP (11756126_x_at) / RFU RNFT2 (11725882_a_at) / Fold change /veh RNFT2 (11725882_a_at) / RFU NR4A2 (11747474_a_at) / Fold change /veh NR4A2 (11747474_a_at) / RFU ABCC12 (11746883_a_at) / Fold change /veh ABCC12 (11746883_a_at) / RFU TMEM136 (11760407_x_at) / Fold change /veh TMEM136 (11760407_x_at) / RFU CLDN22 /// WWC2 (11732394_at) / Fold change /veh CLDN22 /// WWC2 (11732394_at) / RFU HLA-DPB1 (11760878_x_at) / Fold change /veh HLA-DPB1 (11760878_x_at) / RFU SPINT1 (11716480_a_at) / Fold change /veh SPINT1 (11716480_a_at) / RFU GAP43 (11754022_s_at) / Fold change /veh GAP43 (11754022_s_at) / RFU A4GNT (11735810_at) / Fold change /veh A4GNT (11735810_at) / RFU PRB3 (11715151_x_at) / Fold change /veh PRB3 (11715151_x_at) / RFU TUBB4B (11761932_at) / Fold change /veh TUBB4B (11761932_at) / RFU CAPN14 (11732068_a_at) / Fold change /veh CAPN14 (11732068_a_at) / RFU TMCC2 (11721928_a_at) / Fold change /veh TMCC2 (11721928_a_at) / RFU IRGQ (11745062_a_at) / Fold change /veh IRGQ (11745062_a_at) / RFU FAM174B (11720279_a_at) / Fold change /veh FAM174B (11720279_a_at) / RFU TMPRSS4 (11748680_a_at) / Fold change /veh TMPRSS4 (11748680_a_at) / RFU FAM212B (11763350_a_at) / Fold change /veh FAM212B (11763350_a_at) / RFU PLEKHG5 (11743358_a_at) / Fold change /veh PLEKHG5 (11743358_a_at) / RFU ZSCAN30 (11745921_a_at) / Fold change /veh ZSCAN30 (11745921_a_at) / RFU CMKLR1 (11741424_a_at) / Fold change /veh CMKLR1 (11741424_a_at) / RFU LOC101060620 /// MAPK8IP1 (11723275_at) / Fold change /veh LOC101060620 /// MAPK8IP1 (11723275_at) / RFU SPTSSB (11747773_x_at) / Fold change /veh SPTSSB (11747773_x_at) / RFU PRSS12 (11739890_at) / Fold change /veh PRSS12 (11739890_at) / RFU BIN1 (11741810_x_at) / Fold change /veh BIN1 (11741810_x_at) / RFU WNT11 (11732464_a_at) / Fold change /veh WNT11 (11732464_a_at) / RFU C10orf10 (11716521_a_at) / Fold change /veh C10orf10 (11716521_a_at) / RFU C5orf56 (11738089_at) / Fold change /veh C5orf56 (11738089_at) / RFU CYB561 (11721691_x_at) / Fold change /veh CYB561 (11721691_x_at) / RFU ANKRD19P (11752326_a_at) / Fold change /veh ANKRD19P (11752326_a_at) / RFU OR2T12 /// OR2T33 /// OR2T8 (11738714_s_at) / Fold change /veh OR2T12 /// OR2T33 /// OR2T8 (11738714_s_at) / RFU VCAN (11748164_a_at) / Fold change /veh VCAN (11748164_a_at) / RFU JSRP1 (11732532_at) / Fold change /veh JSRP1 (11732532_at) / RFU KRTAP10-11 (11738290_x_at) / Fold change /veh KRTAP10-11 (11738290_x_at) / RFU MYO3A (11730013_a_at) / Fold change /veh MYO3A (11730013_a_at) / RFU EBF3 (11725865_a_at) / Fold change /veh EBF3 (11725865_a_at) / RFU CAMK2N1 (11719241_x_at) / Fold change /veh CAMK2N1 (11719241_x_at) / RFU C5orf56 (11738088_a_at) / Fold change /veh C5orf56 (11738088_a_at) / RFU OLFML3 (11715873_a_at) / Fold change /veh OLFML3 (11715873_a_at) / RFU LOC100653217 /// NTM (11731650_a_at) / Fold change /veh LOC100653217 /// NTM (11731650_a_at) / RFU MAPK11 (11762145_a_at) / Fold change /veh MAPK11 (11762145_a_at) / RFU FIZ1 (11724087_x_at) / Fold change /veh FIZ1 (11724087_x_at) / RFU OASL (11726364_x_at) / Fold change /veh OASL (11726364_x_at) / RFU SOX15 (11748057_x_at) / Fold change /veh SOX15 (11748057_x_at) / RFU CD79A (11719716_a_at) / Fold change /veh CD79A (11719716_a_at) / RFU HIST1H1D (11736915_at) / Fold change /veh HIST1H1D (11736915_at) / RFU CASKIN2 (11723855_a_at) / Fold change /veh CASKIN2 (11723855_a_at) / RFU LOC730098 (11760151_x_at) / Fold change /veh LOC730098 (11760151_x_at) / RFU OR4N2 (11742367_at) / Fold change /veh OR4N2 (11742367_at) / RFU PRRT2 (11749266_a_at) / Fold change /veh PRRT2 (11749266_a_at) / RFU SNX32 (11753110_a_at) / Fold change /veh SNX32 (11753110_a_at) / RFU CDHR5 (11726645_a_at) / Fold change /veh CDHR5 (11726645_a_at) / RFU RCAN1 (11760418_a_at) / Fold change /veh RCAN1 (11760418_a_at) / RFU FAM167A (11723789_a_at) / Fold change /veh FAM167A (11723789_a_at) / RFU FAM26E (11764081_at) / Fold change /veh FAM26E (11764081_at) / RFU ISYNA1 (11749810_s_at) / Fold change /veh ISYNA1 (11749810_s_at) / RFU ACY1 (11761880_at) / Fold change /veh ACY1 (11761880_at) / RFU 11764098_at / Fold change /veh 11764098_at / RFU SAMD14 (11745864_x_at) / Fold change /veh SAMD14 (11745864_x_at) / RFU NPB (11741838_a_at) / Fold change /veh NPB (11741838_a_at) / RFU TMPRSS6 (11731388_a_at) / Fold change /veh TMPRSS6 (11731388_a_at) / RFU KRTAP10-2 (11738614_at) / Fold change /veh KRTAP10-2 (11738614_at) / RFU ARHGAP8 /// PRR5-ARHGAP8 (11727945_x_at) / Fold change /veh ARHGAP8 /// PRR5-ARHGAP8 (11727945_x_at) / RFU KRTAP5-7 /// NADSYN1 (11734609_at) / Fold change /veh KRTAP5-7 /// NADSYN1 (11734609_at) / RFU RASL12 (11751679_a_at) / Fold change /veh RASL12 (11751679_a_at) / RFU CDKN2B (11736163_a_at) / Fold change /veh CDKN2B (11736163_a_at) / RFU PRF1 (11729649_at) / Fold change /veh PRF1 (11729649_at) / RFU, ZNF638 /// ZNF638-IT1 / Fold change vs veh, ZNF638 /// ZNF638-IT1 / RFU, PANK3 / Fold change vs veh, PANK3 / RFU, SH3YL1 / Fold change vs veh, SH3YL1 / RFU, ZEB2 / Fold change vs veh, ZEB2 / RFU, NRIP1 / Fold change vs veh, NRIP1 / RFU, PTTG1IP / Fold change vs veh, PTTG1IP / RFU, CAPN2 / Fold change vs veh, CAPN2 / RFU, MED14 / Fold change vs veh, MED14 / RFU, SNORA58 / Fold change vs veh, SNORA58 / RFU, C1orf63 / Fold change vs veh, C1orf63 / RFU, LRRFIP1 / Fold change vs veh, LRRFIP1 / RFU, NDUFAF7 / Fold change vs veh, NDUFAF7 / RFU, SLC12A2 / Fold change vs veh, SLC12A2 / RFU, IBTK / Fold change vs veh, IBTK / RFU, ESF1 / Fold change vs veh, ESF1 / Fold change vs veh, TMEM50B / RFU, TAOK1 / Fold change vs veh, TAOK1 / RFU, ACBD3 / Fold change vs veh, ACBD3 / RFU, TMA16 / Fold change vs veh, TMA16 / RFU, RWDD3 / Fold change vs veh, RWDD3 / RFU, BCAT1 / Fold change vs veh, BCAT1 / RFU, EDEM3 / Fold change vs veh, EDEM3 / RFU, TMEM33 / Fold change vs veh, TMEM33 / RFU, WDR75 / Fold change vs veh, WDR75 / RFU, AHCTF1 / Fold change vs veh, AHCTF1 / RFU, TFRC / Fold change vs veh, TFRC / RFU, ZDHHC17 / Fold change vs veh, ZDHHC17 / RFU, NOM1 / Fold change vs veh, NOM1 / RFU, ARL8B / Fold change vs veh, ARL8B / RFU, ZBTB11 / Fold change vs veh, ZBTB11 / RFU, TAMM41 / Fold change vs veh, TAMM41 / RFU, KIAA1704 /// LOC100996395 / Fold change vs veh, KIAA1704 /// LOC100996395 / RFU, ING1 / Fold change vs veh, ING1 / RFU, TRMT61B / Fold change vs veh, TRMT61B / RFU, FUBP3 / Fold change vs veh, FUBP3 / RFU, TP53 / Fold change vs veh, TP53 / RFU, TNKS2 / Fold change vs veh, TNKS2 / RFU, ZFP14 / Fold change vs veh, ZFP14 / RFU, ACTR2 / Fold change vs veh, ACTR2 / RFU, PPP3R1 / Fold change vs veh, PPP3R1 / RFU, PIK3R1 / Fold change vs veh, PIK3R1 / RFU, HNRNPA1 / Fold change vs veh, HNRNPA1 / RFU, RNF170 / Fold change vs veh, RNF170 / RFU, ZNF28 / Fold change vs veh, ZNF28 / RFU, RNGTT / Fold change vs veh, RNGTT / RFU, OGT / Fold change vs veh, OGT / RFU, BRD1 / Fold change vs veh, BRD1 / RFU, MARS / Fold change vs veh, MARS / RFU, ZNF655 / Fold change vs veh, ZNF655 / RFU, FAHD1 / Fold change vs veh, FAHD1 / RFU, BDP1 / Fold change vs veh, BDP1 / RFU, LRRCC1 / Fold change vs veh, LRRCC1 / RFU, ARID1A / Fold change vs veh, ARID1A / RFU, ZNF146 / Fold change vs veh, ZNF146 / RFU, ZNF330 / Fold change vs veh, ZNF330 / RFU, GPN3 / Fold change vs veh, GPN3 / RFU, C9orf123 / Fold change vs veh, C9orf123 / RFU, N4BP2L2 / Fold change vs veh, N4BP2L2 / RFU, ARFIP1 / Fold change vs veh, ARFIP1 / RFU, FAM179B / Fold change vs veh, FAM179B / RFU, BCL10 / Fold change vs veh, BCL10 / RFU, UHRF1BP1L / Fold change vs veh, UHRF1BP1L / RFU, BET1 / Fold change vs veh, BET1 / RFU, CNOT2 / Fold change vs veh, CNOT2 / RFU, ZNF268 / Fold change vs veh, ZNF268 / Fold change vs veh, ZNF507 / RFU, DGCR2 / Fold change vs veh, DGCR2 / RFU, WDSUB1 / Fold change vs veh, WDSUB1 / Fold change vs veh, HSP90B1 /// MIR3652 / RFU, ADSS / Fold change vs veh, ADSS / RFU, GK / Fold change vs veh, GK / RFU, ZNF148 / Fold change vs veh, ZNF148 / RFU, TAF9 / Fold change vs veh, TAF9 / RFU, SLC1A5 / Fold change vs veh, SLC1A5 / RFU, SLMO2 / Fold change vs veh, SLMO2 / RFU, ABCC4 / Fold change vs veh, ABCC4 / RFU, LOC101060439 /// RAP1B / Fold change vs veh, LOC101060439 /// RAP1B / RFU, RFX7 / Fold change vs veh, RFX7 / RFU, GTPBP10 / Fold change vs veh, GTPBP10 / RFU, CNEP1R1 / Fold change vs veh, CNEP1R1 / RFU, BIVM-ERCC5 /// ERCC5 / Fold change vs veh, BIVM-ERCC5 /// ERCC5 / RFU, ILF3 / Fold change vs veh, ILF3 / RFU 11762660_at / Fold change /veh 11762660_at / RFU VCAN (11757783_s_at) / Fold change /veh VCAN (11757783_s_at) / RFU DDX43 (11728927_at) / Fold change /veh DDX43 (11728927_at) / RFU KRT8 (11758188_x_at) / Fold change /veh KRT8 (11758188_x_at) / RFU NKD1 (11759106_at) / Fold change /veh NKD1 (11759106_at) / RFU SRD5A1 (11742802_a_at) / Fold change /veh SRD5A1 (11742802_a_at) / RFU TPSAB1 /// TPSB2 (11721975_s_at) / Fold change /veh TPSAB1 /// TPSB2 (11721975_s_at) / RFU GSTM3 (11746129_a_at) / Fold change /veh GSTM3 (11746129_a_at) / RFU IL23R (11737362_x_at) / Fold change /veh IL23R (11737362_x_at) / RFU TMEM51 (11727254_a_at) / Fold change /veh TMEM51 (11727254_a_at) / RFU PIWIL2 (11732686_x_at) / Fold change /veh PIWIL2 (11732686_x_at) / RFU ORM1 (11744905_x_at) / Fold change /veh ORM1 (11744905_x_at) / RFU CCDC152 (11743942_at) / Fold change /veh CCDC152 (11743942_at) / RFU ECM1 (11717891_a_at) / Fold change /veh ECM1 (11717891_a_at) / RFU IL23R (11748794_a_at) / Fold change /veh IL23R (11748794_a_at) / RFU TNFAIP8L3 (11732012_x_at) / Fold change /veh TNFAIP8L3 (11732012_x_at) / RFU MBOAT4 (11741988_at) / Fold change /veh MBOAT4 (11741988_at) / RFU 11764193_at / Fold change /veh 11764193_at / RFU TMEM53 (11763286_at) / Fold change /veh TMEM53 (11763286_at) / RFU MAGEB2 (11727129_at) / Fold change /veh MAGEB2 (11727129_at) / RFU TMEM200A (11744735_a_at) / Fold change /veh TMEM200A (11744735_a_at) / RFU CCDC152 (11751479_a_at) / Fold change /veh CCDC152 (11751479_a_at) / RFU FAM211A (11726209_a_at) / Fold change /veh FAM211A (11726209_a_at) / RFU RGS16 (11746705_a_at) / Fold change /veh RGS16 (11746705_a_at) / RFU VCAN (11755009_s_at) / Fold change /veh VCAN (11755009_s_at) / RFU RHOB (11743442_s_at) / Fold change /veh RHOB (11743442_s_at) / RFU RGS16 (11720943_a_at) / Fold change /veh RGS16 (11720943_a_at) / RFU RGS16 (11720944_at) / Fold change /veh RGS16 (11720944_at) / RFU, VPS4B / Fold change vs veh, VPS4B / RFU, CREB1 / Fold change vs veh, CREB1 / RFU, DNAJC13 / Fold change vs veh, DNAJC13 / RFU, GNAQ / Fold change vs veh, GNAQ / RFU, CDK5R1 / Fold change vs veh, CDK5R1 / RFU, ZRANB3 / Fold change vs veh, ZRANB3 / RFU, CUL4A / Fold change vs veh, CUL4A / RFU, CCNY / Fold change vs veh, CCNY / RFU, UFL1 / Fold change vs veh, UFL1 / RFU, COG3 / Fold change vs veh, COG3 / RFU, DIAPH2 / Fold change vs veh, DIAPH2 / RFU, SKA2 / Fold change vs veh, SKA2 / RFU, AFF3 / Fold change vs veh, AFF3 / RFU, LMF1 / Fold change vs veh, LMF1 / RFU, IPO11 / Fold change vs veh, IPO11 / RFU, DFFB / Fold change vs veh, DFFB / RFU, FOXP1 / Fold change vs veh, FOXP1 / RFU, CARD8 / Fold change vs veh, CARD8 / RFU, STRN3 / Fold change vs veh, STRN3 / RFU, ADK / Fold change vs veh, ADK / RFU, RASSF2 / Fold change vs veh, RASSF2 / RFU, WIPF1 / Fold change vs veh, WIPF1 / RFU, LARP1B / Fold change vs veh, LARP1B / RFU, RASA1 / Fold change vs veh, RASA1 / RFU, RB1 / Fold change vs veh, RB1 / RFU, PPFIA1 / Fold change vs veh, PPFIA1 / RFU, MAT2A / Fold change vs veh, MAT2A / RFU, CCT5 / Fold change vs veh, CCT5 / RFU, WDR92 / Fold change vs veh, WDR92 / RFU, CUX1 / Fold change vs veh, CUX1 / RFU, TTC7A / Fold change vs veh, TTC7A / RFU, TMEM135 / Fold change vs veh, TMEM135 / RFU, DEPTOR / Fold change vs veh, DEPTOR / RFU, CPM / Fold change vs veh, CPM / RFU, DNAJB6 / Fold change vs veh, DNAJB6 / RFU, CACNA2D3 / Fold change vs veh, CACNA2D3 / RFU, DTX4 / Fold change vs veh, DTX4 / RFU, TFCP2 / Fold change vs veh, TFCP2 / RFU, GMCL1 /// GMCL1P1 / Fold change vs veh, GMCL1 /// GMCL1P1 / RFU, AEBP2 / Fold change vs veh, AEBP2 / RFU, SNHG1 /// SNORD22 /// SNORD25 /// SNORD26 /// SNORD27 /// SNORD28 /// SNORD29 /// SNORD31 / Fold change vs veh, SNHG1 /// SNORD22 /// SNORD25 /// SNORD26 /// SNORD27 /// SNORD28 /// SNORD29 /// SNORD31 / Fold change (Aza/veh), C12orf56 (ProbeSet 11735607_a_at) / Fold change (ACY-1035/veh), C12orf56 (ProbeSet 11735607_a_at) / Fold change (Aza/veh), FGFR1OP (ProbeSet 11751329_s_at) / Fold change (ACY-1035/veh), FGFR1OP (ProbeSet 11751329_s_at) / Fold change (Aza/veh), VPS36 (ProbeSet 11739960_a_at) / Fold change (ACY-1035/veh), VPS36 (ProbeSet 11739960_a_at) / RFU SYPL1 (11715823_x_at) / Fold change /veh SYPL1 (11715823_x_at) / RFU IGFBP7 (11715501_s_at) / Fold change /veh IGFBP7 (11715501_s_at) / RFU REEP3 (11722064_at) / Fold change /veh REEP3 (11722064_at) / RFU IGLL1 (11728026_x_at) / Fold change /veh IGLL1 (11728026_x_at): dose or concentration left out as unconfirmed
# Conditions: ProbeSet 11745789_a_at; LIST D
smiles,measurement,value
Nc1ncn([C@@H]2O[C@H](CO)[C@@H](O)[C@H]2O)c(=O)n1 [azacitidine],"Fold change vs veh, TMEM135",0.56
